Reference: patent US20230149510A1, “METHOD FOR ALLEVIATING ARTHRITIS USING EPIDERMAL GROWTH FACTOR” (Lovin BioMed Co., Ltd., priority 2021, published 2023)

Test system: serum COMP, TNF-α, IL-1β, IL-6, IL-17A, PGE2 and NO in MIA-induced OA
Assay: OA biomarkers and inflammatory markers in serum sample (ELISA, Griess assay), MIA-induced OA
Format: in vivo, Sprague Dawley rats
Conditions: rat serum; for content of cartilage oligomeric matrix protein (COMP): day 28, FIG. 3; for content of IL-1β / content of IL-6 / content of IL-17A / content of TNF-α: day 28, FIG. 4; for content of PGE2: day 28, FIG. 5; for content of NO: day 28, Griess assay, FIG. 5
Method: The Sprague Dawley rats were divided into five groups, including one normal control group, one pathological control group, one comparative group, and two experimental groups (i.e., experimental groups 1 to 2) (n=5 rats in each group).
The right knee joint of the respective rat in the pathological control group, the comparative group, and the experimental groups 1 and 2 was intraarticularly injected with 30 μL of a monosodium iodoacetate (MIA) solution (50 g/L, in 0.9% normal saline). In addition, the right knee joint of the respective rat in the normal control group was intraarticularly injected with 30 μL of 0.9% normal saline.
On day 3 and day 14 after injection of the MIA solution, the right knee joint of the respective rat in the comparative group was intraarticularly injected with 30 μL of 1% HA, the right knee joint of the respective rat in the experimental group 1 was intraarticularly injected with 30 μL of the EGF solution (containing 20 μg/g EGF), the right knee joint of the respective rat in the experimental group 2 was intraarticularly injected with 30 μL of the mixture solution (containing 20 μg/g EGF), and the right knee joint of the respective rat in the pathological control group was intraarticularly injected with 30 μL of 0.9% normal saline. In addition, the rats of the normal control group received no treatment.
After determining the diameter of right knee joint at the end of day 28 as described in section D of this example, the rats in each group were sacrificed by virtue of 95% CO2 asphyxiation. Next, a blood sample was collected from the heart of each rat through arterial puncture using a 25G needle, and was then subjected to centrifugation at 1,500 g and 25° C. for 10 minutes, so as to obtain a serum sample. Thereafter, the right knee joint tissue of the respective rat in each group was obtained from each rat carcass and was washed with 0.9% normal saline.
The respective serum sample obtained in section E of this example was diluted 5-fold with RPMI 1640 medium. Thereafter, the content of cartilage oligomeric matrix protein (COMP) was determined using a rat COMP ELISA Kit (Cusabio, Cat. No. CSB-E13833r) in accordance with the manufacturer's instructions. In addition, the contents of TNF-α, IL-1β, IL-6, and IL-17A were respectively determined using a TNF-α ELISA Kit (Invitrogen, Cat. No. 88-7340-88), an IL-1β ELISA Kit (Invitrogen, Cat. No. 88-6010-22), an IL-6 ELISA Kit (Invitrogen, Cat. No. 88-50625-88), and an IL-17A ELISA Kit (Invitrogen, Cat. No. 88-7170-22) in accordance with the manufacturer's instructions. The content of prostaglandin E2 (PGE2) was determined using a PGE2 ELISA Kit (Cusabio, Cat. No. CSB-E07967r) in accordance with the manufacturer's instructions.
Moreover, the content of nitric oxide (NO) was determined using the Griess assay. Briefly, 100 μL of the respective serum sample obtained in section E of this example was mixed with 100 μL of a Griess reagent (containing 0.2% N-(1-Naphthyl)ethylenediamine, 2% sulfanilamide, and 5% phosphoric acid), followed by being left standing for reaction to proceed at room temperature for 10 minutes. The resultant reaction mixture was subsequently subjected to determination of absorbance at a wavelength of 540 nm (OD540) using a spectrophotometer. The OD540 values obtained were subsequently converted to concentration expressed in pg/mL based on a correlation curve previously prepared by plotting different known concentrations of sodium nitrate standards versus OD540 values thereof.
The data thus obtained were analyzed according to the method described in section 1 of “General Procedures”.

hyaluronic acid [HA, reference compound]
content of cartilage oligomeric matrix protein (COMP): lower than that determined in the pathological control group | content of IL-1β: lower than those determined in the pathological control group | content of IL-6: lower than those determined in the pathological control group | content of IL-17A: lower than those determined in the pathological control group | content of TNF-α: lower than those determined in the pathological control group | content of PGE2: lower than those determined in the pathological control group | content of NO: lower than those determined in the pathological control group

EGF: Epidermal growth factor (Cat. No. 02-108, Joycom Bio-chem) dissolved in PBS, 20 μg/g EGF; given to experimental group 1 (NSDSECPLSHDGYCLHDGVCMYIEALDKYACNCVVGYIGERCQYRDLKWWELR; UniProt P01133 971-1023, looked up)
content of cartilage oligomeric matrix protein (COMP): lower than that determined in the pathological control group | content of IL-1β: lower than those determined in the pathological control group | content of IL-6: lower than those determined in the pathological control group | content of IL-17A: lower than those determined in the pathological control group | content of TNF-α: lower than those determined in the pathological control group | content of PGE2: lower than those determined in the pathological control group | content of NO: lower than those determined in the pathological control group
